Data on 4 compounds can be found in ChEMBL document CHEMBL4411271, “New Generation of Selective Androgen Receptor Degraders: Our Initial Design, Synthesis, and Biological Evaluation of New Compounds with Enzalutamide-Resistant Prostate Cancer Activity” (J Med Chem, 2019).

In data set [1] the test system is MR49F. Kind of data set: animal or person. The conditions noted are these: Homo sapiens, po, 336 h, read-out: TGI. It counts as functional.
Description: Antitumor activity against human MR49F cells xenografted in NSG cells assessed as tumor growth inhibition at 100 mg/kg/day, po for 14 days and measured twice weekly relative to control
Data set [2] can be described thus: in vitro. The conditions noted are these: mouse, microsomes.
Description: Half life in mouse liver microsomes at 50 uM in presence of cofactors for phase 1 and 2 metabolism
The conditions of data set [3]: mouse, microsomes, 50 µM.

In the case of `C[C@](O)(Cn1ccc2cc(F)c(-c3ccccc3)cc21)C(=O)Nc1ccc(C#N)c(Cl)c1`, the inhibition in vivo at 100 mg/kg/day in data set [1] was 40 to 60%.

As for `C[C@](O)(Cn1ccc2c(F)cccc21)C(=O)Nc1ccc(C#N)c(Cl)c1`, the inhibition in vivo at 100 mg/kg/day in data set [1] was 40 to 60%.

Broadly, the half-life is the time in which the quantity being followed falls by half. Read a low half-life as rapid decline. As to `C[C@](O)(CN1CCc2cc(F)ccc21)C(=O)Nc1ccc(C#N)c(Cl)c1`, the half-life at 50 µM in data set [2] was 9.16 min.

For `C[C@](O)(COc1ccc(C#N)cc1)C(=O)Nc1ccc(C#N)c(C(F)(F)F)c1` [ENOBOSARM], the CLH in data set [3] stood at 1400 µL/min/mg.
